Reference: patent US20230040770A1, “HETEROCYCLIC COMPOUND AND USE THEREOF” (TAKEDA PHARMACEUTICAL COMPANY LIMITED, priority 2019, published 2023)

These compounds were tested against T1, human orexin type 2 receptor (Homo sapiens, UniProt O43614) (assay: Measurement of orexin type 2 receptor agonist activity (calcium indicator fluorescence, CHO cells forcibly expressing human OX2 receptor)). Conditions: compound at 3 μM; 0% = DMSO, 100% = orexin A (human) 10 nM.
T1 construct: expressed in transfected cells
T1 sequence (O43614 1-444): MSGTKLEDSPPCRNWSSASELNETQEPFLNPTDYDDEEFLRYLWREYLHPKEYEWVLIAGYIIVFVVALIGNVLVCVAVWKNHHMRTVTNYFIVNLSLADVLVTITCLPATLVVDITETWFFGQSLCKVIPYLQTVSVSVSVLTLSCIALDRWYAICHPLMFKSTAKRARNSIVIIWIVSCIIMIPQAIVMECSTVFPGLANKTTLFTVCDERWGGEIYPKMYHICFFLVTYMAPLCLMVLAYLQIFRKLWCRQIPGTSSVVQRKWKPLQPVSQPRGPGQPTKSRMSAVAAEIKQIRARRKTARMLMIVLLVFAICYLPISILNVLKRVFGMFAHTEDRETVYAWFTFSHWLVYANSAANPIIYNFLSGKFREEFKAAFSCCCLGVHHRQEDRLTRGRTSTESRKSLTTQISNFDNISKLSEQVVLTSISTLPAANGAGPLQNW
Assay type: cell-based
Summary of the method: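 Agonist response normalised between vehicle (0%) and orexin A at 10 nM final (100%), from kinetic Fluo-4 calcium signals recorded for about 2 min after compound addition. Cells: stable human OX2R CHO clone, dye-loaded 30 min at 37 °C plus 30 min at room temperature.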

Row | OX2R agonist activity (3 μM, %) [%] | SMILES
1 | 99 | CCS(=O)(=O)N[C@@H]1[C@H](Cc2cccc(-c3ccccc3)c2)N(C(=O)C2CCO2)CC1(F)F (stereo partly drawn) [Example 51, N-[(2S,3R)-2-[([1,1′-biphenyl]-3-yl)methyl]-4,4-difluoro-1-(oxetane-2-carbonyl)pyrrolidin-3-yl]ethanesulfonamide]
2 | 98 | O=C(N1C[C@H](F)[C@H](NS(=O)(=O)C2CC2)[C@@H]1Cc1cccc(-c2cccc(F)c2)c1F)C12CC(C1)C2 [Example 384, N-{(2S,3R,4S)-1-(bicyclo[1.1.1]pentane-1-carbonyl)-2-[(2,3′-difluoro[1,1′-biphenyl]-3-yl)methyl]-4-fluoropyrrolidin-3-yl}cyclopropanesulfonamide]
3 | 106 | CS(=O)(=O)N[C@@H]1[C@H](Cc2cccc(-c3cc(F)cc(F)c3)c2F)N(C(=O)[C@H]2C[C@H](F)C2)CC1(F)F [Example 431, N-{(2S,3R)-4,4-difluoro-1-((1r,3S)-3-fluorocyclobutane-1-carbonyl)-2-[(2,3′,5′-trifluoro[1,1′-biphenyl]-3-yl)methyl]pyrrolidin-3-yl}methanesulfonamide]
4 | 109 | CC(C)C(=O)N1C[C@H](F)[C@H](NS(C)(=O)=O)[C@@H]1Cc1cccc(-c2cccc(F)c2F)c1F [Example 314, N-{(2S,3R,4S)-4-fluoro-1-(2-methylpropanoyl)-2-[(2,2′,3′-trifluoro[1,1′-biphenyl]-3-yl)methyl]pyrrolidin-3-yl}methanesufonamide]
5 | 100 | Cc1cccc(-c2cccc(C[C@H]3[C@@H](NS(=O)(=O)C4CC4)C(F)(F)CN3C(=O)C3CCO3)c2F)c1 (stereo partly drawn) [Example 428, N-[(2S,3R)-4,4-difluoro-2-[(2-fluoro-3′-methyl[1,1′-biphenyl]-3-yl)methyl]-1-(oxetane-2-carbonyl)pyrrolidin-3-yl]cyclopropanesulfonamide]
6 | 98 | CN(C)S(=O)(=O)N[C@@H]1[C@H](Cc2cccc(-c3cccc(F)c3)c2F)N(C(=O)N2CCC2)CC1(F)F [Example 547, N′-{(2S,3R)-1-(azetidine-1-carbonyl)-2-[(2,3′-difluoro[1,1′-biphenyl]-3-yl)methyl]-4,4-difluoropyrrolidin-3-yl}-N,N-dimethylsulfuric diamide]
7 | 90 | Cc1ccc(F)c(-c2cccc(C[C@H]3[C@@H](NS(=O)(=O)C4CC4)[C@@H](F)CN3C(=O)C3CCO3)c2F)c1 (stereo partly drawn) [Example 492, N-[(2S,3R,4S)-2-[(2,2′-difluoro-5′-methyl[1,1′-biphenyl]-3-yl)methyl]-4-fluoro-1-(oxetane-2-carbonyl)pyrrolidin-3-yl]cyclopropanesulfonamide]
8 | 95 | O=C(C1CCO1)N1C[C@H](F)[C@H](NS(=O)(=O)C2CC2)[C@@H]1Cc1cccc(-c2cc(F)cc(F)c2)c1F (stereo partly drawn) [Example 493, N-{(2S,3R,4S)-4-fluoro-1-(oxetane-2-carbonyl)-2-[(2,3′,5′-trifluoro[1,1′-biphenyl]-3-yl)methyl]pyrrolidin-3-yl}cyclopropanesulfonamide]
9 | 95 | CCS(=O)(=O)N[C@H]1[C@@H](F)CN(C(=O)N(C)C)[C@H]1Cc1cccc(-c2cccc(F)c2)c1F [Example 210, (2S,3R,4S)-2-[(2,3′-difluoro[1,1′-biphenyl]-3-yl)methyl]-3-[(ethanesulfonyl)amino]-4-fluoro-N,N-dimethylpyrrolidine-1-carboxamide]
10 | 97 | CS(=O)(=O)N[C@@H]1[C@H](Cc2cccc(-c3cccc(F)c3)c2F)N(C(=O)C2CC(F)C2)CC1(F)F (stereo partly drawn) [Example 392, N-[(2S,3R)-2-[(2,3′-difluoro[1,1′-biphenyl]-3-yl)methyl]-4,4-difluoro-1-(3-fluorocyclobutane-1-carbonyl)pyrrolidin-3-yl]methanesulfonamide]
11 | 101 | Cc1cccc(-c2cccc(C[C@H]3[C@@H](NS(=O)(=O)N(C)C)C(F)(F)CN3C(=O)C3CCO3)c2F)c1 (stereo partly drawn) [Example 434, N′-[(2S,3R)-4,4-difluoro-2-[(2-fluoro-3′-methyl[1,1′-biphenyl]-3-yl)methyl]-1-(oxetane-2-carbonyl)pyrrolidin-3-yl]-N,N-dimethylsulfuric diamide]
12 | 101 | CC(C)C(=O)N1C[C@H](F)[C@H](NS(C)(=O)=O)[C@@H]1Cc1cccc(-c2cc(F)cc(F)c2)c1F [Example 316, N-{(2S,3R,4S)-4-fluoro-1-(2-methylpropanoyl)-2-[(2,3′,5′-trifluoro[1,1′-biphenyl]-3-yl)methyl]pyrrolidin-3-yl}methanesulfonamide]
13 | 89 | CCS(=O)(=O)N[C@@H]1[C@H](Cc2cccc(-c3cccc(C(F)F)c3)c2F)N(C(=O)C2CCO2)CC1(F)F (stereo partly drawn) [Example 503, N-[(2S,3R)-2-{[3′-(difluoromethyl)-2-fluoro[1,1′-biphenyl]-3-yl]methyl}-4,4-difluoro-1-(oxetane-2-carbonyl)pyrrolidin-3-yl]ethanesulfonamide]
14 | 98 | CCS(=O)(=O)N[C@@H]1[C@H](Cc2cccc(-c3ccccc3)c2F)N(C(=O)C2CCO2)CC1(F)F (stereo partly drawn) [Example 45, N-[(2S,3R)-4,4-difluoro-2-[(2-fluoro[1,1′-biphenyl]-3-yl)methyl]-1-(oxetane-2-carbonyl)pyrrolidin-3-yl]ethanesulfonamide]
15 | 89 | CC(C)(O)C(=O)N1C[C@H](F)[C@H](NS(C)(=O)=O)[C@@H]1Cc1cccc(-c2cccc(Cl)c2F)c1F [Example 389, N-[(2S,3R,4S)-2-[(3′-chloro-2,2′-difluoro[1,1′-biphenyl]-3-yl)methyl]-4-fluoro-1-(2-hydroxy-2-methylpropanoyl)pyrrolidin-3-yl]methanesulfonamide]
16 | 107 | CCS(=O)(=O)N[C@H]1[C@@H](F)CN(C(=O)[C@H]2CCCO2)[C@H]1Cc1cccc(-c2cccc(F)c2F)c1F [Example 415, N-{(2S,3R,4S)-4-fluoro-1-[(2R)-oxolane-2-carbonyl]-2-[(2,2′,3′-trifluoro[1,1′-biphenyl]-3-yl)methyl]pyrrolidin-3-yl}ethanesulfonamide]
17 | 100 | CCS(=O)(=O)N[C@@H]1[C@H](Cc2cccc(-c3ccc(F)c(C)c3)c2F)N(C(=O)C2CCO2)CC1(F)F (stereo partly drawn) [Example 476, N-[(2S,3R)-2-[(2,4′-difluoro-3′-methyl[1,1′-biphenyl]-3-yl)methyl]-4,4-difluoro-1-(oxetane-2-carbonyl)pyrrolidin-3-yl]ethanesulfonamide]
18 | 93 | CCS(=O)(=O)N[C@H]1[C@@H](F)CN(C(=O)C23CC(C2)C3)[C@H]1Cc1cccc(-c2cc(F)cc(F)c2)c1F [Example 365, N-{(2S,3R,4S)-1-(bicyclo[1.1.1]pentane-1-carbonyl)-4-fluoro-2-[(2,3′,5′-trifluoro[1,1′-biphenyl]-3-yl)methyl]pyrrolidin-3-yl}ethanesulfonamide]
19 | 95 | CCS(=O)(=O)N[C@H]1[C@@H](F)CN(C(=O)[C@H]2CCCO2)[C@H]1Cc1cccc(-c2cc(F)cc(F)c2)c1F [Example 414, N-{(2S,3R,4S)-4-fluoro-1-[(2R)-oxolane-2-carbonyl]-2-[(2,3′,5′-trifluoro[1,1′-biphenyl]-3-yl)methyl]pyrrolidin-3-yl}ethanesulfonamide]
20 | 100 | CCS(=O)(=O)N[C@H]1[C@@H](F)CN(C(=O)C2CC2)[C@H]1Cc1cccc(-c2cc(F)cc(Cl)c2)c1F [Example 517, N-[(2S,3R,4S)-2-[(3′-chloro-2,5′-difluoro[1,1′-biphenyl]-3-yl)methyl]-1-(cyclopropanecarbonyl)-4-fluoropyrrolidin-3-yl]ethanesulfonamide]
21 | 85 | CCS(=O)(=O)N[C@@H]1[C@H](Cc2cccc(-c3cccc(F)c3)c2F)N(C(=O)[C@H]2CCCO2)CC1(F)F [Example 453, N-{(2S,3R)-2-[(2,3′-difluoro[1,1′-biphenyl]-3-yl)methyl]-4,4-difluoro-1-[(2R)-oxolane-2-carbonyl]pyrrolidin-3-yl}ethanesulfonamide]
22 | 108 | Cc1cccc(-c2cccc(C[C@H]3[C@@H](NS(C)(=O)=O)C(F)(F)CN3C(=O)C(C)(C)O)c2F)c1 [Example 25, N-[(2S,3R)-4,4-difluoro-2-[(2-fluoro-3′-methyl[1,1′-biphenyl]-3-yl)methyl]-1-(2-hydroxy-2-methylpropanoyl)pyrrolidin-3-yl]methanesulfonamide]
23 | 96 | CCS(=O)(=O)N[C@H]1[C@@H](F)CN(C(=O)C2CCO2)[C@H]1Cc1cccc(-c2cc(C)ccc2F)c1F (stereo partly drawn) [Example 502, N-[(2S,3R,4S)-2-[(2,2′-difluoro-5′-methyl[1,1′-biphenyl]-3-yl)methyl]-4-fluoro-1-(oxetane-2-carbonyl)pyrrolidin-3-yl]ethanesulfonamide]
24 | 90 | CCS(=O)(=O)N[C@@H]1[C@H](Cc2cccc(-c3cccc(C)c3F)c2F)N(C(=O)N2CCC2)CC1(F)F [Example 291, N-{(2S,3R)-1-(azetidine-1-carbonyl)-2-[(2,2′-difluoro-3′-methyl[1,1′-biphenyl]-3-yl)methyl]-4,4-difluoropyrrolidin-3-yl}ethanesulfonamide]
